Measured values taken from ChEMBL document CHEMBL6078709, “Discovery of Cyclic Lipopeptides, Octaminomycins C and D, by Engineering LysR Transcriptional Regulator of Streptomyces sp” (J Nat Prod, 2024).
Positions of bridges follow the written chain, without caps; N, C: chain ends. Non-standard residues stand in square brackets, D forms with d. Residues, ends and D or L forms follow the SMILES beside them. *: point of attachment. NMeY = CN[C@@H](Cc1ccc(O)cc1)C(=O)O; Propionyl = CCC(=O)*

Columns and labels:
Format in all cases: functional, cell-based
A549 = test: Antiproliferative activity against human A549 cells assessed as inhibition of cell growth incubated for 72 hrs by sulforhodamine B assay; conditions: A549, 72 h
SK-HEP1 = test: Antiproliferative activity against human SK-HEP1 cells assessed as inhibition of cell growth incubated for 72 hrs by sulforhodamine B assay; conditions: SK-HEP1, 72 h
HCT-116 = test: Antiproliferative activity against human HCT-116 cells assessed as inhibition of cell growth incubated for 72 hrs by sulforhodamine B assay; conditions: HCT-116, 72 h
SNU-638 = test: Antiproliferative activity against human SNU-638 cells assessed as inhibition of cell growth incubated for 72 hrs by sulforhodamine B assay; conditions: SNU-638, 72 h
MDA-MB-231 = test: Antiproliferative activity against human MDA-MB-231 cells assessed as inhibition of cell growth incubated for 72 hrs by sulforhodamine B assay; conditions: MDA-MB-231, 72 h
HUVEC = test: Antiangiogenic activity in human HUVEC cells assessed as inhibition of VEGF-induced tube formation incubated for 6 hrs by matrigel based inverted microscopic analysis

Row | IC50 (A549) | IC50 (SK-HEP1) | IC50 (HCT-116) | IC50 (SNU-638) | IC50 (MDA-MB-231) | Compound | IC50 (HUVEC)
1 | 12.3 µM | 13.1 µM | > 20 µM | > 20 µM | 12 µM | CCC(=O)N[C@@H]1C(=O)N[C@@H](Cc2ccccc2)C(=O)N[C@H](CC(C)C)C(=O)N[C@@H](C(C)C)C(=O)N2CCC[C@H]2C(=O)N[C@@H](CC(C)C)C(=O)N(C)[C@@H](Cc2ccccc2)C(=O)N2CCC[C@H]2C(=O)O[C@@H]1C | > 40 µM
2 | 15.5 µM | 17.4 µM | > 20 µM | 17.2 µM | > 20 µM | CCC(=O)N[C@@H]1C(=O)N[C@@H](Cc2ccccc2)C(=O)N[C@H](CC(C)C)C(=O)N[C@@H](C(C)C)C(=O)N2CCC[C@H]2C(=O)N[C@@H](CC(C)C)C(=O)N(C)[C@@H](Cc2ccc(O)cc2)C(=O)N2CCCC[C@H]2C(=O)O[C@@H]1C | > 40 µM
3 | > 20 µM | 19 µM | > 20 µM | 16.8 µM | > 20 µM | CC(=O)N[C@@H]1C(=O)N[C@@H](Cc2ccccc2)C(=O)N[C@H](CC(C)C)C(=O)N[C@@H](C(C)C)C(=O)N2CCC[C@H]2C(=O)N[C@@H](CC(C)C)C(=O)N(C)[C@@H](Cc2ccc(O)cc2)C(=O)N2CCC[C@H]2C(=O)O[C@@H]1C (Ac-TF[dL]VPL[NMeY]P; ester 1-C) | 28 µM
4 | > 20 µM | > 20 µM | > 20 µM | > 20 µM | > 20 µM | CCC(=O)N[C@@H]1C(=O)N[C@@H](Cc2ccccc2)C(=O)N[C@H](CC(C)C)C(=O)N[C@@H](C(C)C)C(=O)N2CCC[C@H]2C(=O)N[C@@H](CC(C)C)C(=O)N(C)[C@@H](Cc2ccc(O)cc2)C(=O)N2CCC[C@H]2C(=O)O[C@@H]1C (Propionyl-TF[dL]VPL[NMeY]P; ester 1-C) | > 40 µM
5 | 2.73 µM | 3.78 µM | 3.16 µM | 1.96 µM | 2.43 µM | COc1cc([C@@H]2c3cc4c(cc3[C@@H](O[C@@H]3O[C@@H]5CO[C@@H](C)O[C@H]5[C@H](O)[C@H]3O)[C@H]3COC(=O)[C@H]23)OCO4)cc(OC)c1O [ETOPOSIDE] | 
6 |  |  |  |  |  | CCN(CC)CCNC(=O)c1c(C)[nH]c(/C=C2\C(=O)Nc3ccc(F)cc32)c1C [SUNITINIB] | 3.5 µM
